pIC50: −log10 of the molar value.
How the values were obtained:
[1] = target: human recombinant Aurora A (Homo sapiens (Human), UniProt O14965); test: Aurora A Kinase Biochemical Assay (ADP-Glo); details: ratio of Aurora A IC50 to PLK4 IC50 (selectivity)
[2] = target: human recombinant Aurora B (Homo sapiens (Human), UniProt Q96GD4); test: Aurora B Kinase Biochemical Assay (ADP-Glo); details: ratio of Aurora B IC50 to PLK4 IC50 (selectivity)
Summary of the method: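 IC50 derived by four-parameter nonlinear fit of ADP-Glo luminescence (ADP produced). Compound was preincubated 15 min at RT with 20 nM recombinant human Aurora B, in 50 mM HEPES pH 7.5, 10 mM MgCl2, 1 mM EGTA, 1 mM DTT, 0.01% Brij-35/BSA.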

CHP-134 cells = test: CHP134 CellTiter-Glo (CTG) Assay; assay type: cell-based; details: Homo sapiens, CHP-134, 120 h, 5 days, viable cells by CellTiter-Glo
Summary of the method: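 Nine-point 1:3 dilution series, diluted into growth media, added in quadruplicate to CHP-134 cells plated 16 h earlier at 200 cells/well.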

human recombinant PLK4 = human recombinant PLK4 (Homo sapiens (Human), UniProt O00444); test: PLK4 Biochemical Assay (ADP-Glo); details: 0.5 nM PLK4, 8.0 µM ATP, 4.7 µM MBP, 6 hours at RT
human recombinant PLK4, sequence (O00444 whole entry): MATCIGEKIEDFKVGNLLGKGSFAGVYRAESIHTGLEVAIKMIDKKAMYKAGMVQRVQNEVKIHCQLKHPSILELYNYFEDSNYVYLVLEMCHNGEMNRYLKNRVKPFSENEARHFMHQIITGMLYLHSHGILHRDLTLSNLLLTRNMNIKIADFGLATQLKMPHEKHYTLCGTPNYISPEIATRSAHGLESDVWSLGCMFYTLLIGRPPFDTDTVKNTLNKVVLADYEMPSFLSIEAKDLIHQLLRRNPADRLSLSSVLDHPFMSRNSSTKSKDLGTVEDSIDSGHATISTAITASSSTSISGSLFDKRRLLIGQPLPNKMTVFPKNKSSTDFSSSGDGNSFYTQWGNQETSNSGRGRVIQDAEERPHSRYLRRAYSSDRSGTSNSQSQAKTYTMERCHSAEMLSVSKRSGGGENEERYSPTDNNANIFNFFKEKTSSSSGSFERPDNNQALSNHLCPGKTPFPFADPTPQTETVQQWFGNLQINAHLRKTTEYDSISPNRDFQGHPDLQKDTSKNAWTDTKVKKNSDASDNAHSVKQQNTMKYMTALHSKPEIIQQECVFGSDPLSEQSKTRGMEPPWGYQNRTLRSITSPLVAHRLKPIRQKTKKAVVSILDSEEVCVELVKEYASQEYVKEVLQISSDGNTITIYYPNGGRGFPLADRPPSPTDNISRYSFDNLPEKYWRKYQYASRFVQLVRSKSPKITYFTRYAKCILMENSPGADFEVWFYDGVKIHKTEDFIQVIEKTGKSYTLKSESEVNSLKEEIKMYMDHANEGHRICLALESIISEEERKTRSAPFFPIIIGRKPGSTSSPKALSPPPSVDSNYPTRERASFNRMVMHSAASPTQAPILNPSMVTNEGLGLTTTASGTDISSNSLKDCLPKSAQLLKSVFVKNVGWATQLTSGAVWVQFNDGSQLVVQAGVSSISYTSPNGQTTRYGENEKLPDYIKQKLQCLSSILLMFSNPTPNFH
Summary of the method: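 Luminescent ADP-Glo detection quantified ADP production, with ATP depletion for 40 min and detection for 30 min at room temperature. Compound and PLK4 (1.0 nM stock addition) were preincubated 15 min in HEPES pH 7.5 buffer containing MgCl2, EGTA, DTT, Brij-35 and BSA. IC50 values were obtained by four-parameter nonlinear regression.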

human recombinant Aurora B, sequence (Q96GD4 whole entry): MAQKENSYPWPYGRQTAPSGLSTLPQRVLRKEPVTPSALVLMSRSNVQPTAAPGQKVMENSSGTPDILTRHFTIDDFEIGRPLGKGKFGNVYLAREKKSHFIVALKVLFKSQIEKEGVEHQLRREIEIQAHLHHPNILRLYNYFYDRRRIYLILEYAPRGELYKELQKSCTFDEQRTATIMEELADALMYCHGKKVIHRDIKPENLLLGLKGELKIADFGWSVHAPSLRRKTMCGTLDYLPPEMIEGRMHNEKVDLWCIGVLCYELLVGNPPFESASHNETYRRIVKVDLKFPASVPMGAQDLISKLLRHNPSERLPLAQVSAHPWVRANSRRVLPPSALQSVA
human recombinant Aurora A, sequence (O14965 whole entry): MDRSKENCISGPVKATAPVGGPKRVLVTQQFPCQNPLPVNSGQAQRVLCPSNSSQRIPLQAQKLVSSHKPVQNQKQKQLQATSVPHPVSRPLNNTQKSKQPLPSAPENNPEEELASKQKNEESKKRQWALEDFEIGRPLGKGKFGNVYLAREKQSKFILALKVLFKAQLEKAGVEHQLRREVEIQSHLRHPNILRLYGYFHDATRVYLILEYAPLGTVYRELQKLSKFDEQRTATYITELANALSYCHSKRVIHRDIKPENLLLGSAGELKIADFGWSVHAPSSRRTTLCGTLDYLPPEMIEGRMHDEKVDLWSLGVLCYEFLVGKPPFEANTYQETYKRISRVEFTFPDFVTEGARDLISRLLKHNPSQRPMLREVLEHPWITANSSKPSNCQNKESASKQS

| Structure (SMILES) | [Aurora A IC50 (nM)]/[PLK4 IC50 (nM)] [1] | [Aurora B IC50 (nM)]/[PLK4 IC50 (nM)] [2] | pIC50 (CHP-134 cells) | pIC50 (human recombinant PLK4) |
| --- | --- | --- | --- | --- |
| COc1ccc2c(c1)[C@]1(C[C@H]1c1ccc3c(Nc4ccc(C(=O)N(C)OC)nc4OC)n[nH]c3c1)C(=O)N2 [Example 218, N,6-dimethoxy-5-({6-[(1R,2S)-5′-methoxy-2′-oxo-1′,2′-dihydrospiro[cyclopropane-1,3′-indol]-2-yl]-1H-indazol-3-yl}amino)-N-methylpyridine-2-carboxamide] | 806.5968 | 70.8586 | 7.13 | 9.02 |
| COc1ccc2c(c1)[C@]1(C[C@H]1c1ccc3c(Nc4ccc(C(=O)NNC(C)C)nc4OC)n[nH]c3c1)C(=O)N2 [Example 219, 6-methoxy-5-({6-[(1R,2S)-5′-methoxy-2′-oxo-1′,2′-dihydrospiro[cyclopropane-1,3′-indol]-2-yl]-1H-indazol-3-yl}amino)-N′-(propan-2-yl)pyridine-2-carbohydrazide] | 763.5782 | 64.2571 | 6.29 | 8.60 |
| COc1ccc2c(c1)[C@]1(C[C@H]1c1ccc3c(Nc4ccc(S(=O)(=O)N(C)C)nc4OC)n[nH]c3c1)C(=O)N2 [Example 222, 6-methoxy-5-({6-[(1R,2S)-5′-methoxy-2′-oxo-1′,2′-dihydrospiro[cyclopropane-1,3′-indol]-2-yl]-1H-indazol-3-yl}amino)-N,N-dimethylpyridine-2-sulfonamide] | 446.1368 | 546.4311 | 6.34 | 8.87 |
| CCOc1nc(S(=O)(=O)N(C)C)ccc1Nc1n[nH]c2cc([C@@H]3C[C@@]34C(=O)Nc3ccc(OC)cc34)ccc12 [Example 223, 6-ethoxy-5-({6-[(1R,2S)-5′-methoxy-2′-oxo-1′,2′-dihydrospiro[cyclopropane-1,3′-indol]-2-yl]-1H-indazol-3-yl}amino)-N,N-dimethylpyridine-2-sulfonamide] | 1004.7743 | 445.3125 | 6.79 | 8.64 |
| COc1ccc2c(c1)[C@]1(C[C@H]1c1ccc3c(Nc4cc(C(C)(C)O)cnc4OC)n[nH]c3c1)C(=O)N2 [Example 226, (1R,2S)-2-(3-{[5-(2-hydroxypropan-2-yl)-2-melhoxypyridin-3-yl]amino}-1H-indazol-6-yl)-5′-methoxyspiro[cyclopropane-1,3′-indol]-2′(1′H)-one] | 2759.6376 | 474.6155 | 5.67 | 8.32 |
| CCS(=O)(=O)c1cnc(Nc2n[nH]c3cc([C@@H]4C[C@@]45C(=O)Nc4ccc(OC)cc45)ccc23)c(OC)c1 [Example 228, (1R,2S)-2-(3-{[5-(Ethanesulfonyl)-3-methoxypyridin-2-yl]amino}-1H-indazol-6-yl)-5′-methoxyspiro[cyclopropane-1,3′-indol]-2′(1′H)-one] | 813.6599 | 340.4602 | 6.74 | 8.87 |
| COc1ccc2c(c1)[C@]1(C[C@H]1c1ccc3c(Nc4ccc(C(=O)NCC5CC5)nc4OC)n[nH]c3c1)C(=O)N2 [Example 230, N-(cyclopropylmethyl)-6-methoxy-5-({6-[(1R,2S)-5′-methoxy-2′-oxo-1′,2′-dihydrospiro[cyclopropane-1,3′-indol]-2-yl]-1H-indazol-3-yl}amino)pyridine-2-carboxamide] | 12432.2103 | 213.4346 | 6.40 | 8.61 |
| COc1ccc2c(c1)[C@]1(C[C@H]1c1ccc3c(Nc4ccc(C(=O)NC(C)C)nc4OC)n[nH]c3c1)C(=O)N2 [Example 231, 6-methoxy-5-({6-[(1R,2S)-5′-methoxy-2′-oxo-1′,2′-dihydrospiro[cyclopropane-1,3′-indol]-2-yl]-1H-indazol-3-yl}amino)-N-(propan-2-yl)pyridine-2-carboxamide] | 4955.7692 | 316.7307 | 6.40 | 8.81 |
| COc1ccc2c(c1)[C@]1(C[C@H]1c1ccc3c(Nc4ccc(C(=O)N5C6CCC5COC6)nc4OC)n[nH]c3c1)C(=O)N2 [Example 232, (1R,2S)-5′-methoxy-2-(3-{[2-methoxy-6-(3-oxa-8-azabicyclo[3.2.1]octane-8-carbonyl)pyridin-3-yl]amino}-1H-indazol-6-yl)spiro[cyclopropane-1,3′-indol]-2′(1′H)-one] | 651.7909 | 105.5179 | 6.85 | 8.99 |
| COc1ccc2c(c1)[C@]1(C[C@H]1c1ccc3c(Nc4nn(C)c(=O)cc4OC)n[nH]c3c1)C(=O)N2 [Example 233, (1R,2S)-5′-methoxy-2-{3-[(4-methoxy-1-methyl-6-oxo-1,6-dihydropyridazin-3-yl)amino]-1H-indazol-6-yl)spiro[cyclopropane-1,3′-indol]-2′(1′H)-one] | 332.3068 | 107.2788 | 5.32 | 8.45 |
| COc1ccc2c(c1)[C@]1(C[C@H]1c1ccc3c(Nc4cc(-c5ncco5)cnc4OC)n[nH]c3c1)C(=O)N2 [Example 234, (1R,2S)-5′-Methoxy-2-(3-{[2-methoxy-5-(1,3-oxazol-2-yl)pyridin-3-yl]amino}-1H-indazol-6-yl)spiro[cyclopropane-1,3′-indol]-2′(1′H)-one] | 608.9799 | 831.7349 | 6.56 | 8.64 |
| COc1ccc2c(c1)[C@]1(C[C@H]1c1ccc3c(Nc4cc(C)c(C(=O)N(C)C)nc4OC)n[nH]c3c1)C(=O)N2 [Example 238, 6-methoxy-5-({6-[(1R,2S)-5′-methoxy-2′-oxo-1′,2′-dihydrospiro[cyclopropane-1,3′-indol]-2-yl]-1H-indazol-3-yl}amino)-N,N,3-trimethylpyridine-2-carboxamide] | 536.1 | 582.2189 | 6.87 | 8.87 |
| COc1ccc2c(c1)[C@]1(C[C@H]1c1ccc3c(Nc4cnc(S(C)(=O)=O)cc4OC)n[nH]c3c1)C(=O)N2 [Example 241, (1R,2S)-2-(3-{[6-(methanesulfonyl)-4-methoxypyridin-3-yl]amino}-1H-indazol-6-yl)-5′-methoxyspiro[cyclopropane-1,3′-indol]-2′(1′H)-one] | 2066.9875 | 253.4697 | 5.96 | 8.60 |
| COc1ccc2c(c1)[C@]1(C[C@H]1c1ccc3c(Nc4ncc(S(C)(=O)=O)nc4OC)n[nH]c3c1)C(=O)N2 [Example 242, (1R,2S)-2-(3-{[5-(methanesulfonyl)-3-methoxypyrazin-2-yl]amino}-1H-indazol-6-yl)-5′-methoxyspiro[cyclopropane-1,3′-indol]-2′(1′H)-one] | 307.7159 | 129.0381 | 5.26 | 8.19 |
| COc1ccc2c(c1)[C@]1(C[C@H]1c1ccc3c(Nc4ccc(C(=O)N(C5CC5)C5CC5)nc4OC)n[nH]c3c1)C(=O)N2 [Example 243, N,N-dicyclopropyl-6-methoxy-5-({6-[(1R,2S)-5′-methoxy-2′-oxo-1′,2′-dihydrospiro[cyclopropane-1,3′-indol]-2-yl]-1H-indazol-3-yl}amino)pyridine-2-carboxamide] | 479.1122 | 164.5778 | 6.73 | 8.94 |
| COc1ccc2c(c1)[C@]1(C[C@H]1c1ccc3c(Nc4ccc(C(=O)NCC(F)F)nc4OC)n[nH]c3c1)C(=O)N2 [Example 244, N-(2,2-difluoroethyl)-6-methoxy-5-({6-[(1R,2S)-5′-methoxy-2′-oxo-1′,2′-dihydrospiro[cyclopropane-1,3′-indol]-2-yl]-1H-indazol-3-yl}amino)pyridine-2-carboxamide] | 1578.3505 | 312.3 | 6.26 | 8.54 |
| COc1ccc2c(c1)[C@]1(C[C@H]1c1ccc3c(Nc4ccc(C(=O)N5[C@H](C)CCC[C@@H]5C)nc4OC)n[nH]c3c1)C(=O)N2 [Example 245, (1R,2S)-2-[3-({6-[(2R,6S)-2,6-dimethylpiperidine-1-carbonyl]-2-methoxypyridin-3-yl}amino)-1H-indazol-6-yl]-5′-methoxyspiro[cyclopropane-1,3′-indol]-2′(1′H)-one] | 1730.3523 | 319.6476 | 6.88 | 9.13 |
| COc1ccc2c(c1)[C@]1(C[C@H]1c1ccc3c(Nc4ccc(C(=O)N5CC6CCC(C5)O6)nc4OC)n[nH]c3c1)C(=O)N2 [Example 246, (1R,2S)-5′-methoxy-2-(3-{[2-methoxy-6-(8-oxa-3-azabicyclo[3.2.1]octane-3-carbonyl)pyridin-3-yl]amino}-1H-indazol-6-yl)spiro[cyclopropane-1,3′-indol]-2′(1′H)-one] | 426.8090 | 176.8683 | 7.17 | 9.07 |
